The target in data set [1] is sigma receptors. Put plainly: Sigma receptor binding assay, displacement of [³H]DTG. As to conditions: guinea pig brain membrane homogenates, radioligand [³H]DTG […], 90 minutes at room temperature; read-out: IC₅₀ binding values. How it is done: Briefly, frozen whole guinea-pig brains (Biotrol, Indianapolis, IN) were homogenized in 10 volumes (w/v) of ice-cold 320 mM sucrose using a Brinkman polytron. The homogenate was centrifuged at 1,000 x g for 20 minutes at 4°C. The supernatant was centrifuged at 20,000 x g for 20 minutes at 4°C. The resulting pellet was resuspended in 10 initial volumes of 50 mM Tris/HCl buffer at pH 7.4 and centrifuged at 20,000 x g for 20 minutes at 4°C. The resulting pellet was resuspended in 5 initial volumes ice-cold 50mM Tris/Hcl (pH .4), and the final volume was adjusted to yield a protein concentration of 3 mg/ml, as determined by dye-binding protein assay (Biorad) using BSA as the standard.
Incubations were terminated after 90 minutes at room temperature by addition of 4 ml of ice-cold 50mM Tris/HCl (pH 7.4) and rapid filtration of the membrane suspension through Whatman GF/B glass-fiber filters under vacuum, using a 48-well cell harvester (Brandel, Gaithersburg, MD). The filters were washed 2 times with 4 ml of 50 mM Tris/HCl (pH 7.4). Total filtration and washing time was less than 20 seconds. Each filter was dissolved in 10 ml Cytoscint (Westchem, San Diego, CA), and radioactivity was measured by liquid scintillation spectrometry at a counting efficiency of approximately 50%. IC₅₀ values were determined by interpolation from displacement-curve plots on semilogarithmic graph paper.

Data set [2] concerns male albino BKW mice. As to conditions: mouse, in vivo.
The subject of data set [3] is Male Hooded Lister rats. Briefly: Rat social interaction test. The following applies: for social interactions: 40 min. before testing, 10 min session, n = 6. In kind it is in vivo.
Excerpt: A second preferred animal model is the rat social interaction test described by Jones, B.J. et al., supra, wherein the time that two mice spend in social interaction is quantified. […] Both the familiarity and the light level of the test arena may be manipulated. Undrugged rats show the highest level of social interaction when the test arena is familiar and is lit by low light. Social interaction declines if the arena is unfamiliar to the rats or is lit by bright light. Anxiolytic agents prevent this decline. The overall level of motor activity may also be measured to allow detection of drug effects specific to social behaviors.
Male Hooded Lister rats (Glaxo bred, 200-250g), were housed 5 to a cage and were kept in the laboratory environment for at least a week before testing. Rats paired in the test were taken from separate cages.
The test arena consisted of an open-topped box, 62 x 62 x 33 cm with a 7 x 7 matrix of infra-red photocell beams in the walls, 2.5 cm from the floor.
Testing involved placing each member of a pair of rats in opposite corners of the arena and then leaving them undisturbed for 10 min. while recording their behavior remotely on videotape. The behavioral assessments were made subsequently from the recordings. The time spent in social interaction was measured and expressed as a cumulative total for the 10 min session. The behaviors that comprised social interaction were: following with contact, sniffing (but not sniffing of the hindquarters), crawling over and under, tumbling, boxing and grooming.
N-adamantyl-N'-o-tolylguanidine was tested over the range of 0.001-0.1 mg/kg.
Data set [4] deals with male albino BKW mice. Put plainly: Light/dark exploration of mice (black:white test box). As to conditions: for numbers of rears and line crossings at the highest dose (sedation) / latency to entering the dark compartment: subcutaneously; for numbers of rears and line crossings at the highest dose (sedation): 0.1 mg/kg, drug not sedative at this level; for numbers of rears and line crossings compared with controls (sedation): not sedative at the dosage level.

Where [5] appears, read: subcutaneously 40 min before testing, 0.01 ug to 0.1 mg/kg.
Where [6] appears, read: 0.01 ug to 0.1 mg/kg, result in words.

Where two headings read alike, the source gives them in different places.

For the compound `CNC(=N)NC` [DMG, N,N'-di(methyl)guanidine], the IC50 in data set [1] was above 100000 nM.
With `Cc1ccccc1NC(=N)NC1CCCCC1` [N-cyclohexyl-N'-(2-methylphenyl)-guanidine], the IC50 in data set [1] turned out to be 13 nM.
Still for that read-out and setting: as for `N=C(NC1CCCCC1)NC12CC3CC(CC(C3)C1)C2` [AdChG, N-(cyclohexyl)-N'-(adamant-1-yl)guanidine], the figure is 12.5 nM; as for `Cc1ccccc1NC(=N)N[C@H]1C[C@@H]2CC[C@H]1C2` (relative stereo) [N-(exo-2-norbornyl)-N'-(2-methylphenyl)guanidine], 7 nM; as for `N=C(Nc1ccccc1I)N[C@H]1C[C@@H]2CC[C@H]1C2` (relative stereo) [N-(exo-2-norbornyl)-N'-(2-iodophenyl)guanidine], 4 nM.
`Cc1ccccc1NC(=N)NC1C2CC3CC(C2)CC1C3` (centres unmarked) [N-(adamant-2-yl)-N'-(2-methylphenyl)guanidine]: the IC50 in data set [1] was 7 nM.
Same read-out and setting: for `N=C(Nc1ccccc1I)NC1C2CC3CC(C2)CC1C3` (centres unmarked) [N-adamant-2-yl)-N'-(2-iodophenyl)guanidine] the value was 3.5 nM.
As for `CN1C(=O)CN=C(c2ccccc2)c2cc(Cl)ccc21` [diazepam, reference compound], the “numbers of rears and line crossings at the highest dose (sedation)” value (from here on “numbers … at the highest dose (sedation)”) in data set [2] is “decreased significantly”. Moreover, the social interactions result in data set [3] (diazepam intraperitoneally 0.125-1 mg/kg) is “significantly increased”. In data set [4] (mouse, in vivo), the “numbers of line crossings and rears in the light compartment” value (shortened to “numbers of line crossings and rears”) is reported as “increased at the expense of those in the dark compartment”; the “proportion of time the mice spent in the larger, lighted area of the test chamber” value (“proportion … of the test chamber” for short) is reported as “dose-dependently increased”.
For the compound `CCCN1CCC[C@@H](c2cccc(O)c2)C1` [(-)-3-PPP, reference compound], the IC50 in data set [1] was found to be 280 ± 21 nM.
Same read-out and setting: for `CCN1CCCC1CNC(=O)c1cc(S(N)(=O)=O)ccc1OC` (centres unmarked) [sulpiride, reference compound] the value was above 100 nM.
Still for that read-out and setting: for `CN(C)CCCN1c2ccccc2Sc2ccc(Cl)cc21` [chlorpromazine, reference compound] the value was 1480 ± 265 nM.
Take “N-(adamant-1-yl)-N'-[(E)-2-phenylethenyl]phenylguanidine”: in data set [4] (setting [5]), the “numbers of line crossings and rears” value is “tended to remain the same except at the highest dosage”; the “proportion … of the test chamber” value is “generally did not increase”. Also, the “numbers … at the highest dose (sedation)” value in data set [4] is listed as “did not decrease significantly”. In data set [1], the IC50 came out at 1000 nM.
Consider `Cc1ccccc1NC(=N)Nc1ccc(N)cc1C` [NH₂-DTG], for which the IC50 in data set [1] worked out at 280 ± 20 nM.
Turning to `Cc1ccccc1NC(=N)NC12CC3CC(CC(C3)C1)C2` [AdTG, N-(o-tolyl)-N'-(adamant-1-yl)guanidine], in data set [3] (0.001-0.1 mg/kg i.p.), the social interactions entry is “significantly increased”. Also, in data set [3] (1 mg/kg for diazepam and 0.1 mg/kg for N-adamantyl-N'-o-tolylguanidine), the “dose producing about the same result, relative to the dose of diazepam” value was “one-tenth”. Moreover, in data set [4] (orally administered, 1 mg/kg), the “anxiolytic activity when orally administered” value is “anxiolytic activity”; the “numbers of line crossings and rears” value was “increased at the expense of those in the dark compartment”; the “proportion of time the mice spent in the larger, lighted area of the box” value is listed as “increased significantly”. Moreover, in data set [4] (setting [5]), the “numbers of line crossings and rears” value was “increased at the expense of those in the dark compartment”; the “proportion … of the test chamber” value is “dose dependently increased”. The “latency to entering the dark compartment” value in data set [4] (setting [6]) is reported as “increased in a dose dependant manner”. Further, the “numbers … at the highest dose (sedation)” value in data set [4] was “did not decrease significantly”.
Turning to `N=C1Nc2ccccc2-c2ccccc2N1` [Bridge-DPG, 2-imino-1,3H-dibenzo[d,f]-[1,3]-diazepine], in data set [1], the IC50 is above 100000 nM.
The same measure, in the same setting: as for `Cc1ccccc1NC(=N)N[C@@H]1C[C@@H]2CC[C@H]1C2` (racemic) [N-((±)-endo-2-norbornyl)-N'-(2-methylphenyl)guanidine], the figure is 6 nM; as for `O=C1CC2(CCCC2)CC(=O)N1CCCCN1CCN(c2nsc3ccccc23)CC1` [tiospirone, reference compound], 233 ± 52 nM.
Same read-out and setting: for `Cc1cccc(C)c1NC(=N)Nc1c(C)cccc1C` [DXG, N,N'-di-(2,6-dimethylphenyl)-guanidine] the value was 90 ± 18 nM; for `C=CCN1CC[C@@]2(C)c3cc(O)ccc3C[C@@H]1[C@@H]2C` [(-)-SKF10047, reference compound], 4000 ± 566 nM.
Same read-out and setting: for `N=C(Nc1ccccc1I)N[C@@H]1C[C@@H]2CC[C@H]1C2` (racemic) [N-((±)-endo-2-norbornyl)-N'-(2-iodophenyl)guanidine] the value was 5 nM.
Regarding `N=C(NC12CC3CC(CC(C3)C1)C2)NC12CC3CC(CC(C3)C1)C2` [DAG, N,N'-di(adamant-1-yl)guanidine], in data set [4] (orally administered, 1 mg/kg), the “anxiolytic activity when orally administered” value is “anxiolytic activity”; the “latency to entering the dark compartment in comparison to controls” value is “increase”; the “numbers of line crossings and rears” value is “increase”; the “numbers of rears and line crossings compared with controls (sedation)” value is “did not decrease significantly”. Besides, in data set [4] (setting [5]), the “numbers of line crossings and rears” value is on record as “increased at the expense of those in the dark compartment”; the “proportion … of the test chamber” value is “tended to increase”. Besides, in data set [4], the “numbers … at the highest dose (sedation)” value is listed as “did not decrease significantly”. Besides, in data set [4] (peak effect at 0.01 ug/kg, controls 12 sec), the “latency to entering the dark compartment” value was 20 s.
Regarding `NC(=Nc1ccccc1I)NC12CC3CC(CC(C3)C1)C2` [AdIpG, N-(2-iodophenyl)-N'-(adamant-1-yl)guanidine], in data set [4] (orally administered, 1 mg/kg), the “anxiolytic activity when orally administered” value is listed as “anxiolytic activity”; the “latency to entering the dark compartment in comparison to controls” value is “increase”; the “numbers of line crossings and rears” value is listed as “increase”; the “numbers of rears and line crossings compared with controls (sedation)” value is “did not decrease significantly”. Also, in data set [4] (setting [5]), the “numbers of line crossings and rears” value is “increased at the expense of those in the dark compartment”; the “proportion … of the test chamber” value is on record as “increased, in a dose dependant manner”. Moreover, the “latency to entering the dark compartment” value in data set [4] (setting [6]) is “increased in a dose dependant manner”. Moreover, the “numbers … at the highest dose (sedation)” value in data set [4] is “did not decrease significantly”. Moreover, the IC50 in data set [1] is 6.2 nM.
Take `Cc1ccccc1NC(=N)NC1CCCCC1` [DChG, N-(o-tolyl)-N'-(cyclohexyl)guanidine]: the IC50 in data set [1] stood at 86 ± 17 nM.
As to N,N-di(o-tolyl)-guanidine [DTG], the “number of rears, crossings, or the % time in the black compartment” value in data set [4] (s.c., at the concentrations tested, Figure 7) is listed as “did not affect significantly”.

These data come from patent publication EP0473671B1, “USE OF SIGMA-RECEPTORS LIGANDS FOR THE MANUFACTURE OF AN ANXIOLYTIC AGENT” (STATE OF OREGON BY AND THROUGH OREGON STATE BOARD OF HIGHER …, priority 1989, dated 1990).
